Data from ChEMBL document CHEMBL3739291, “3-AminooxazolidinoneAHL analogs as hydrolytically-stable quorum sensingagonists in Gram-negative bacteria” (Medchemcomm, 2015).
Activity calls are given as the source filed them. No cut-off for these calls is given here.

Columns and labels:
[1] = Agonist activity at Escherichia coli JM109 LasR assessed as induction of bioluminescence after 8 hrs by luminometric analysis
[2] = Stability in 180 mM Tris-HCl buffer at pH 8 measured for 3 hrs by HPLC analysis; assay type: physicochemical; details: pH 8, 3 h
[3] = biological target: T1, CviR transcriptional regulator (Chromobacterium violaceum) (UniProt D3W065); test: Antagonist activity at Chromobacterium violaceum CV026 CviR assessed as inhibition of C4-HSL-induced violacein production at 2 uM preincubated at 32 degC for day 1 followed by further incubation at 25 degC on day 2 by agar plate assay
T1 sequence (whole entry): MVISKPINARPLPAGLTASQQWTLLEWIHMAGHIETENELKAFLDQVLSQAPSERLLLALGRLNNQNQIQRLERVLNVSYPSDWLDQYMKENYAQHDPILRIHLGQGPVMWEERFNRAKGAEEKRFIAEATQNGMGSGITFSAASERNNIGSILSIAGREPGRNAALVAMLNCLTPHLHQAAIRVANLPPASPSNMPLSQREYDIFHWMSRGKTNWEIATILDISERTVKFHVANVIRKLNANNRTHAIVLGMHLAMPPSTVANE

[4] = biological target: T1, CviR transcriptional regulator (Chromobacterium violaceum); test: Agonist activity at Chromobacterium violaceum CV026 CviR assessed as production of violacein at 20 uM preincubated at 32 degC for day 1 followed by further incubation at 25 degC on day 2 by agar plate assay
[5] = biological target: T1, CviR transcriptional regulator (Chromobacterium violaceum); test: Antagonist activity at Chromobacterium violaceum CV026 CviR assessed as inhibition of C4-HSL-induced violacein production preincubated at 32 degC for day 1 followed by further incubation at 25 degC on day 2 by agar plate assay

Row | Structure (SMILES) | EC50 [1] [nM] | Stability [2] | inhibition [3] | Activity [4] | inhibition [5]
1 | CCCCCCCCCC(=O)CC(=O)N[C@H]1CCOC1=O | 1.5 | Stable | Active |  | 
2 | CCCC(=O)N[C@H]1CCOC1=O |  |  |  | Active | 
3 | CCCCCCCCCC(=O)CC(=O)NN1CCOC1=O | 2.1 | Stable |  |  | Active
4 | CCCC(=O)NN1CCOC1=O |  |  |  | Active | 
